Laboratory results: US20100035848A1, “THERAPY FOR DISORDERS OF THE PROXIMAL DIGESTIVE TRACT” (priority 2008, published 2010)

Key:
[1] = test system: gastric PGE2; test: Acute diclofenac-induced gastric toxicity in rats: gastric PGE2 concentration; format: in vivo, rat
Procedure: (§1) Male Wistar rats were deprived of food but not water for 16 hours prior to oral administration of GL1001 90 mg/kg, incubated for 30 minutes and then given oral diclofenac 50 mg/kg. Each group consisted of 6 rats. As a negative control, one group received vehicle pretreatment, and then received vehicle instead of diclofenac. A positive control group received PGE2 100 μg/kg orally, 30 minutes prior to administration of diclofenac. All treatments were administered by oral gavage.
(§2) Three hours after diclofenac treatment, all animals were sacrificed and stomachs were removed and imaged to determine the severity of gastric damage. Additionally, stomach tissue samples were taken to assess disease activity and pharmacodynamic effects. Gastric damage scores were determined from photographic images (Ma & Wallace (2003) Am. J. Physiol. Gastrointest. Liver Physiol. 279; 341-346). Removed stomachs were opened along the greater curvature, pinned out on a wax block, and photographed along a 25 mm ruler reference with a digital 35 mm camera. The lesion area was then determined using enlarged images and computer software (www.scioncorp.co/pages/scion_image_windows.htm) that allows superimposed drawing of the perimeter of a wound and calculation of the area based on the ruler reference. Stomach samples (excluding forestomach) were used for measurements of PGE2 concentration, MPO activity and ACE2 activity. […] Concentration of PGE2 from stomach tissue samples was performed as described by Souza et al. (2003), supra, and quantification was obtained by LC-MS. […] Last, the extent of inhibition of ACE2 activity was determined to establish whether GL1001 was effective in inhibiting its ACE2 target in stomach tissues. The ACE2 activity assay is similar to the method of Vickers et al. (2002) J. Biol. Chem. 277:14838-14843, wherein purified recombinant ACE2 (100 pM) and a quenched fluorescent substrate (100-150 μM APK (7-methoxycoumarin-4-yl)acetyl-Ala-Pro-Lys (2,4-dinitrophenyl)) are used in end-point fluorescence reactions (excitation 320 nm, emission 405 nm). […]
(§3) Data are expressed as means with standard errors. […]

[2] = test system: diclofenac-induced gastric damage; test: Acute diclofenac-induced gastric toxicity in rats: gastric damage score; format: in vivo, rat; settings: for Gastric damage score: Group D: PGE2 100 μg/kg oral 30 min before diclofenac 50 mg/kg oral, 3 h, Group B 17.80 ± 5.08
Procedure: as §1
Three hours after diclofenac treatment, all animals were sacrificed and stomachs were removed and imaged to determine the severity of gastric damage. Additionally, stomach tissue samples were taken to assess disease activity and pharmacodynamic effects. Gastric damage scores were determined from photographic images (Ma & Wallace (2003) Am. J. Physiol. Gastrointest. Liver Physiol. 279; 341-346). Removed stomachs were opened along the greater curvature, pinned out on a wax block, and photographed along a 25 mm ruler reference with a digital 35 mm camera. The lesion area was then determined using enlarged images and computer software (www.scioncorp.co/pages/scion_image_windows.htm) that allows superimposed drawing of the perimeter of a wound and calculation of the area based on the ruler reference. Stomach samples (excluding forestomach) were used for measurements of PGE2 concentration, MPO activity and ACE2 activity. PRE2 determinations are used in this study as a hiomarker of diclofenac effect since its mechanism of action involves inhibition of cyclooxygenase (COX-2 and COX-1) enzymes which in turn results in inhibition of PGE2 synthesis. Concentration of PGE2 from stomach tissue samples was performed as described by Souza et al. (2003), supra, and quantification was obtained by LC-MS. MTO, an enzyme found in abundance in granulocytes, is used as a biochemical marker of tissue inflammation. When tissues undergo inflammatory processes, granulocytes are recruited to the site of inflammation and infiltrate the affected tissue giving rise to increase MPO activity (Souza et al. (2003), supra). Last, the extent of inhibition of ACE2 activity was determined to establish whether GL1001 was effective in inhibiting its ACE2 target in stomach tissues. The ACE2 activity assay is similar to the method of Vickers et al. (2002) J. Biol. Chem. 277:14838-14843, wherein purified recombinant ACE2 (100 pM) and a quenched fluorescent substrate (100-150 μM APK (7-methoxycoumarin-4-yl)acetyl-Ala-Pro-Lys (2,4-dinitrophenyl)) are used in end-point fluorescence reactions (excitation 320 nm, emission 405 nm). For stomach ACE2 measurements, tissues were homogenized in the presence of a general protease inhibitor (PMSF) and specific ACE inhibitors. […]
as §3

[3] = test system: myeloperoxidase; test: Acute indomethacin-induced gastric toxicity in rats: gastric myeloperoxidase activity; format: in vivo, rat; settings: Group J: PGE2 100 μg/kg p.o., indomethacin 20 mg/kg p.o.; vehicle Group I 29.5 ± 2.8
Procedure: A study was conducted to determine whether GL1001 would inhibit acute NSAID (indomethacin)-induced gastric toxicity in a rat model (Wallace et al. (1998) Gastroenterol. 115:101-109). Several modes of treatment with GL1001 or vehicle were employed, which included administration via drinking water, oral administration and subcutaneous administration as shown in Table 4. Irrespective of the route of drug or vehicle administration, male Wistar rats were deprived of food for 16 h prior to oral administration of 20 mg/kg indomethacin (Sigma) or vehicle (5% w/v sodium bicarbonate; 1 ml/kg). Three hours later the rats were sacrificed and the severity of gastric damage was blindly scored. This involved measurement of the lengths (in mm) of all hemorrhagic erosions and summing these to give a “gastric damage score” for each stomach. Samples of the stomach were taken for measurement of prostaglandin E2 (PGE2) synthesis as described by Wallace et al. (1998), supra, and myeloperoxidase activity as described by Souza et al. (2003) Am. J. Physiol. 285:[…]-61. Myeloperoxidase is an enzyme found in all cells of mycloid origin, but particularly enriched within neutrophils. […] Based on average water consumption by rats, this was aimed at providing a daily dose of GL1100 of 1200 mg/kg (water consumption was monitored for several days prior to initiation of the study). […] Data are expressed as mean±SEM. […]

[4] = target: T1, ACE2 (Rattus norvegicus, UniProt Q5EGZ1); test: Acute diclofenac-induced gastric toxicity in rats: ACE2 activity in stomach tissue; format: in vivo
T1 construct: from tissue; host or cells: rat stomach (excluding forestomach) homogenate
T1 sequence (Q5EGZ1 18-805): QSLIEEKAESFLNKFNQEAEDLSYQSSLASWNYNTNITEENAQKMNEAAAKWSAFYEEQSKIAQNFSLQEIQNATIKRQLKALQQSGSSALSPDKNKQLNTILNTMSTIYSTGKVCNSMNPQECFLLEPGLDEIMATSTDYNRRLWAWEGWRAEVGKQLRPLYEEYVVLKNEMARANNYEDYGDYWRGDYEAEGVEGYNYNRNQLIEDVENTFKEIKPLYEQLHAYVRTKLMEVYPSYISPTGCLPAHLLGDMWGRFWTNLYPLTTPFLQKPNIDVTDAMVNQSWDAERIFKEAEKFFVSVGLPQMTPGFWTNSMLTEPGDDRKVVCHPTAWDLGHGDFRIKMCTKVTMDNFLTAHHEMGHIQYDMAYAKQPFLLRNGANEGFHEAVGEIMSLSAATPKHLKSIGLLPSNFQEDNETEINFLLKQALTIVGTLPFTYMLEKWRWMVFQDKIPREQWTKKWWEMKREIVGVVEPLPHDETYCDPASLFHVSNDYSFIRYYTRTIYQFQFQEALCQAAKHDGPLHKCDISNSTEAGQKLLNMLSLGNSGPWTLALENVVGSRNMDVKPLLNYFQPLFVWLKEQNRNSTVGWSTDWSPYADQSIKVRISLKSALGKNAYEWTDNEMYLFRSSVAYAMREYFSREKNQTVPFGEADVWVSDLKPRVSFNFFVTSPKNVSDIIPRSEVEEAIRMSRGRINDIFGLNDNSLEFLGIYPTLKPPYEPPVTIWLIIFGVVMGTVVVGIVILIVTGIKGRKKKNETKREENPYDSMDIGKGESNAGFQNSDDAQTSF
Procedure: as §1, §2, §3

[5] = test system: gastric PGE2 synthesis; test: Acute indomethacin-induced gastric toxicity in rats: gastric PGE2 synthesis; format: in vivo, rat; settings: indomethacin 20 mg/kg p.o.
Procedure: A study was conducted to determine whether GL1001 would inhibit acute NSAID (indomethacin)-induced gastric toxicity in a rat model (Wallace et al. (1998) Gastroenterol. 115:101-109). Several modes of treatment with GL1001 or vehicle were employed, which included administration via drinking water, oral administration and subcutaneous administration as shown in Table 4. Irrespective of the route of drug or vehicle administration, male Wistar rats were deprived of food for 16 h prior to oral administration of 20 mg/kg indomethacin (Sigma) or vehicle (5% w/v sodium bicarbonate; 1 ml/kg). Three hours later the rats were sacrificed and the severity of gastric damage was blindly scored. This involved measurement of the lengths (in mm) of all hemorrhagic erosions and summing these to give a “gastric damage score” for each stomach. Samples of the stomach were taken for measurement of prostaglandin E2 (PGE2) synthesis as described by Wallace et al. (1998), supra, and myeloperoxidase activity as described by Souza et al. (2003) Am. J. Physiol. 285:[…]-61. Myeloperoxidase is an enzyme found in all cells of mycloid origin, but particularly enriched within neutrophils. It is therefore used as a biochemical marker of granulocyte infiltration into tissue. Each group consisted of 6 rats. As a negative control, one group received vehicle pretreatments (in the drinking water and by oral gavage) and then received vehicle instead of indomethacin. […] [table] In the experiments where GL1001 (or vehicle) was added to drinking water, the rats were provided with the modified drinking water for 2 days prior to administration of indomethacin (or vehicle). This included the period when the rats were deprived of food. GL1001 was prepared in 0.1M citrate buffer before being added to the drinking water. Based on average water consumption by rats, this was aimed at providing a daily dose of GL1100 of 1200 mg/kg (water consumption was monitored for several days prior to initiation of the study). Oral or subcutaneous administration of GL1001 (or vehicle) was performed 30 minutes prior to administration of indomethacin. Data are expressed as mean±SEM. When two groups of data were compared, a Student's t-test was used. When more than two groups of data were compared, a one-way analysis of variance followed by the Newman-Keuls test was used. An associated probability of less than 5% was considered statistically significant.

[6] = test system: gastric mucosal erosions, dyspeptic symptoms; settings: cited from earlier work
[7] = test system: duodenal ulcer; settings: administered to treat heart failure; Gidaiatov et al. (2000); cited from earlier work

CCCCC[C@H](O)/C=C/[C@H]1[C@H](O)CC(=O)[C@@H]1C/C=C\CCCC(=O)O [PGE2, prostaglandin E2]
Gastric PGE2 concentration ([1]; Group D: PGE2 100 μg/kg oral before diclofenac 50 mg/kg): 0 pg/mg | Gastric damage score [2]: 0 | Gastric damage score ([2]; listed as PCGE2): total absence of gastric lesions | Gastric MPO activity [3]: 22.8 ± 2.2 U/mg | Gastric ACE2 activity ([4]; Group D: PGE2 100 μg/kg oral before diclofenac 50 mg/kg, Group B 880 ± 39): 688 ± 30 pmol/mg | Gastric PGE2 synthesis ([5]; Group J: PGE2 100 μg/kg p.o., vehicle Group I 6.08 ± 1.00): 6.10 ± 1.00 ng/mg

O=C(O)Cc1ccccc1Nc1c(Cl)cccc1Cl [diclofenac]
PGE2 levels in stomach tissue ([1]; all treatment groups that received diclofenac 50 mg/kg oral, vehicle Group A 43.22 pg/mg): no detectable | mean gastric damage score ([2]; diclofenac 50 mg/kg oral after vehicle pretreatment, 3 h (Group B)): 17.8 | Activity of ACE2 in stomach tissue ([4]; diclofenac-treated Group B vs Group A, p=0.052): trend towards up-regulation

COc1ccc2c(c1)c(CC(=O)O)c(C)n2C(=O)c1ccc(Cl)cc1 [indomethacin, reference compound]
reduction of gastric PGE2 synthesis ([5]; irrespective of pretreatment, vehicle only Group E 82 ng/mg): > 92%

CCOC(=O)[C@H](CCc1ccccc1)N[C@@H](C)C(=O)N1CCC[C@H]1C(=O)O [enalapril]
percentage of patients with dyspeptic symptoms ([6]; hypertensive patients, decreased from 78% upon treatment): 40% | number of patients having gastric mucosal erosions ([6]; of 30 hypertensive patients, decreased from 11 upon treatment): 4 | healing of duodenal ulcer, patients treated [7]: 87%
